Test results taken from ChEMBL document CHEMBL1909046, “DrugMatrix in vitro pharmacology data”.

How the values were obtained:
[1] = target: T1, Alpha-1A adrenergic receptor (Rattus norvegicus, UniProt P43140); assay: DRUGMATRIX: Alpha-1A adrenergic receptor radioligand binding (ligand: prazosin); format: cell membranes, Wistar, Submaxillary gland, Membrane; settings: Not Active = under 50% inhibition at 10 µM
T1 sequence (P43140 whole entry): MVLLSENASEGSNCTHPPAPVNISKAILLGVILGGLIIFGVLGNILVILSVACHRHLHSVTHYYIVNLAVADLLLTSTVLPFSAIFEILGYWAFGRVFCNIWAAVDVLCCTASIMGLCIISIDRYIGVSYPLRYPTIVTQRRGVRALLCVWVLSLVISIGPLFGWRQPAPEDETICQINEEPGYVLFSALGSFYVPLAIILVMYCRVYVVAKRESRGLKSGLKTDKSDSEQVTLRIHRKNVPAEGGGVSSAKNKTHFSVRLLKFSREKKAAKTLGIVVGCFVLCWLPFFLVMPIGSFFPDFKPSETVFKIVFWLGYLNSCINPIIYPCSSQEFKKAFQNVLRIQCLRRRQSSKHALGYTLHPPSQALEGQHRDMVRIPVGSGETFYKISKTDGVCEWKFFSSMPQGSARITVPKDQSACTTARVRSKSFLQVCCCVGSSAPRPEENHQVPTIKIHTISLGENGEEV

[2] = DRUGMATRIX: Calcium Channel Type L, Dihydropyridine radioligand binding (ligand: [3H] Nitrendipine); format: cell membranes, Rattus norvegicus, Wistar, Cerebral cortex, Membrane; settings: Not Active = under 50% inhibition at 10 µM
[3] = target: T2, 5-hydroxytryptamine receptor 2C (Homo sapiens, UniProt P28335); assay: DRUGMATRIX: Serotonin (5-Hydroxytryptamine) 5-HT2C radioligand binding (ligand: [3H] Mesulergine); format: cell membranes, CHO-K1, Membrane; settings: cho-k1; Not Active = under 50% inhibition at 10 µM
T2 sequence (P28335 whole entry): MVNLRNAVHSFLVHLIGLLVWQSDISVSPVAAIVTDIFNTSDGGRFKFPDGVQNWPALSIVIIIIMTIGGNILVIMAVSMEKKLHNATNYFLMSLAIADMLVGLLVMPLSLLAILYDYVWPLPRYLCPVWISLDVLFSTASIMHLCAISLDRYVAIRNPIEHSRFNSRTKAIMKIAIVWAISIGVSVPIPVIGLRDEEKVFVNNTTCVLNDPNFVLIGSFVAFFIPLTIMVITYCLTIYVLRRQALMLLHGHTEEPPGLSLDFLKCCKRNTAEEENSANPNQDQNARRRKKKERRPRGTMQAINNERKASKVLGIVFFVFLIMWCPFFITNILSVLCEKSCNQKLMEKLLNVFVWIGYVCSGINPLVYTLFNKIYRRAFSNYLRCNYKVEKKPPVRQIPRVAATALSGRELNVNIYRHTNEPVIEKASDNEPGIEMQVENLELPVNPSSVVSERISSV

[4] = target: C-C chemokine receptor type 5 (Homo sapiens, UniProt P51681); format: cell membranes, Membrane; settings: hek293; further: in other assays of this panel Not Active means under 50% inhibition at 10 µM
C-C chemokine receptor type 5, sequence (P51681 whole entry): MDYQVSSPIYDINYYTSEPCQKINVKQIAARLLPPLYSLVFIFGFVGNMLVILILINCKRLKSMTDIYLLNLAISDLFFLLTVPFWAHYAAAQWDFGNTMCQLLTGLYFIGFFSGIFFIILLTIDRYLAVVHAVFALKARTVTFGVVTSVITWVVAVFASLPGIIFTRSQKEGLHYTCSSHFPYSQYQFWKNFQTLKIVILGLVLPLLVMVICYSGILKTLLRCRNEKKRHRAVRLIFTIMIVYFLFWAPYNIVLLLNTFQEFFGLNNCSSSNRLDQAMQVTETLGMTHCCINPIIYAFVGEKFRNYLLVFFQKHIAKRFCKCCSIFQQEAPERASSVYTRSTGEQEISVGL

[5] = DRUGMATRIX: Leukotriene, BLT (LTB4) radioligand binding (ligand: [3H]LTB4); format: cell membranes, Membrane; settings: u-937; Not Active = under 50% inhibition at 10 µM
[6] = target: T3, Amine oxidase [flavin-containing] A (Homo sapiens, UniProt P21397); assay: DRUGMATRIX: Monoamine Oxidase MAO-A enzyme inhibition (substrate: Kynuramine); design: species or system BTI-TN-5B1-4; settings: bti-tn-5b1-4; Not Active = under 50% inhibition at 10 µM
T3 sequence (P21397 whole entry): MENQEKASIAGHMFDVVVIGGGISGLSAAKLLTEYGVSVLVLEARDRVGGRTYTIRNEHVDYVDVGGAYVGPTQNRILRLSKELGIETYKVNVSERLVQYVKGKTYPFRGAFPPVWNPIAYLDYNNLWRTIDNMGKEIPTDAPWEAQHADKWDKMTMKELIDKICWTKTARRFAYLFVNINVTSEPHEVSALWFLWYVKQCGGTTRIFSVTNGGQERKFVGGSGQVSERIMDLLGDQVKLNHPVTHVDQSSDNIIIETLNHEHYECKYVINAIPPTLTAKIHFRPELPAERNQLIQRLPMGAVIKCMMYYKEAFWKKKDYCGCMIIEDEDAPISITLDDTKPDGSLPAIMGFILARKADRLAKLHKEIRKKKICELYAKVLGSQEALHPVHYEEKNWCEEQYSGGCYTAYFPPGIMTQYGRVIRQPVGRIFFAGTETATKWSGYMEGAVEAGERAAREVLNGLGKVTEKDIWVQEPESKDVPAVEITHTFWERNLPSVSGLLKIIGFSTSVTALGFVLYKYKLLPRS

[7] = target: T4, Neuropeptide Y receptor type 2 (Homo sapiens, UniProt P49146); format: cell membranes, Membrane; settings: kan-ts; further: in other assays of this panel Not Active means under 50% inhibition at 10 µM
T4 sequence (P49146 whole entry): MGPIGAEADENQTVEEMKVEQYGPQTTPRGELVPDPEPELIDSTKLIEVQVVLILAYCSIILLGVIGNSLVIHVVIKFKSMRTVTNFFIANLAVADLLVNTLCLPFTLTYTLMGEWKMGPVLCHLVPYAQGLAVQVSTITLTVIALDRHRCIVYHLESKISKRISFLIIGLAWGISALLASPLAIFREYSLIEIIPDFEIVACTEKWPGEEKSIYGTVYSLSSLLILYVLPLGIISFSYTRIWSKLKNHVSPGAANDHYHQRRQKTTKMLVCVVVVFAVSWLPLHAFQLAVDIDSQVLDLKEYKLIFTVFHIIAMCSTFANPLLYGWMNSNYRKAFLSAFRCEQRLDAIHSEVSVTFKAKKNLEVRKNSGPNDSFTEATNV

[8] = target: T5, Progesterone receptor (Bos taurus, UniProt Q690N0); assay: DRUGMATRIX: Progesterone radioligand binding (ligand: [3H] R-5020); format: tissue-based, Uterus; settings: Not Active = under 50% inhibition at 10 µM; for Ki: read-out: Ki
T5 sequence (Q690N0 whole entry): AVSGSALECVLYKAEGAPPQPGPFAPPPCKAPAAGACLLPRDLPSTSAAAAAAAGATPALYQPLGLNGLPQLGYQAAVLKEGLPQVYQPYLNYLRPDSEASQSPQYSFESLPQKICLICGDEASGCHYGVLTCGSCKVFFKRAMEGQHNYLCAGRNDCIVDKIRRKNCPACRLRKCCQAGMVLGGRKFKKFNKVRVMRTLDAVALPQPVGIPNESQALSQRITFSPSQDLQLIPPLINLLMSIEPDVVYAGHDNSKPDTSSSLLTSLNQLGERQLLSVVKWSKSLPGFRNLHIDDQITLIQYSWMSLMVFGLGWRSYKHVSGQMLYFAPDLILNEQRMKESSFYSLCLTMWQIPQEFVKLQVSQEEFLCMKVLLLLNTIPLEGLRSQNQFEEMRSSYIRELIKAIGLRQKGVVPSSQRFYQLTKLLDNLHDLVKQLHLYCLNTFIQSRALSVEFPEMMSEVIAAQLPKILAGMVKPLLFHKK

[9] = target: Mitogen-activated protein kinase 3 (Homo sapiens, UniProt P27361); assay: DRUGMATRIX: Protein Serine/Threonine Kinase, ERK1 enzyme inhibition (substrate: Myelin Basic Protein); design: species or system Escherichia coli; settings: Not Active = under 50% inhibition at 10 µM
Mitogen-activated protein kinase 3, sequence (P27361 whole entry): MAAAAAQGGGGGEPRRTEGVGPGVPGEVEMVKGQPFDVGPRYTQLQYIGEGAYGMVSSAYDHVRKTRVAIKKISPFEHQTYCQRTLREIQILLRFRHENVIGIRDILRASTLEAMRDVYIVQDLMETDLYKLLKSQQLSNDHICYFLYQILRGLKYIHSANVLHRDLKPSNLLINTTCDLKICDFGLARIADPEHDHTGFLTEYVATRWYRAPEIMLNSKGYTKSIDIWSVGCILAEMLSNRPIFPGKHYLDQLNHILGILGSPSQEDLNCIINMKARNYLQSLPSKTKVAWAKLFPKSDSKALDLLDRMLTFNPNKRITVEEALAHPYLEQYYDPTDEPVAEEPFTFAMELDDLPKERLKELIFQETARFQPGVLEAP

[10] = target: Adenosine receptor A2a (Homo sapiens, UniProt P29274); assay: DRUGMATRIX: Adenosine A2A radioligand binding (ligand: […]); format: cell membranes, HEK293, Membrane; settings: hek293; Not Active = under 50% inhibition at 10 µM
Adenosine receptor A2a, sequence (P29274 whole entry): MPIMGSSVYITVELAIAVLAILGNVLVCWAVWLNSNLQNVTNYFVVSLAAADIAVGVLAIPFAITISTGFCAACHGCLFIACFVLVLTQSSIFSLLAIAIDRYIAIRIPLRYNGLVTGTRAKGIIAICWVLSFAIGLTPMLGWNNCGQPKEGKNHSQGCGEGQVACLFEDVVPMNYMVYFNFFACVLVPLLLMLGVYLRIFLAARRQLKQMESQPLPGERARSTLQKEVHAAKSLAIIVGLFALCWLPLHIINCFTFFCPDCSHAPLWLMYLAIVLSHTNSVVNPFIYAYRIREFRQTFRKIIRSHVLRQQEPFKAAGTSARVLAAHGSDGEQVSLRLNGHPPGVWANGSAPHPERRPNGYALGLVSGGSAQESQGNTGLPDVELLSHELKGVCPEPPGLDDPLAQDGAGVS

With `Cc1ncc([N+](=O)[O-])n1CC(C)O` (configuration not stated) [SECNIDAZOLE] the IC50 [1] was “Not Active”, the IC50 [2] was “Not Active” and the Ki [2] was “Not Active”. The IC50 [3] was “Not Active”, the IC50 [4] was “Not Active” and the IC50 [5] was “Not Active”. For the same molecule, the Ki [5] was “Not Active”, the IC50 [6] was “Not Active” and the IC50 [7] was “Not Active”. For the same molecule, the IC50 [8] was “Not Active”, the IC50 [9] was “Not Active” and the IC50 [10] was “Not Active”.
In the case of `CN[C@@H]1[C@@H](O)[C@@H](O[C@@H]2[C@@H](O)[C@H](O[C@H]3OC(CN)=CC[C@H]3N)[C@@H](N)C[C@H]2N)OC[C@]1(C)O` [SISOMICIN], the IC50 [1] is reported as “Not Active”, the IC50 [2] is reported as “Not Active” and the Ki [2] is reported as “Not Active”. The IC50 [3] was “Not Active”, the IC50 [4] was “Not Active” and the IC50 [5] was “Not Active”. For the same molecule, the Ki [5] was “Not Active”, the IC50 [6] was “Not Active” and the IC50 [7] was “Not Active”. For the same molecule, the IC50 [8] was “Not Active”, the IC50 [9] was “Not Active” and the IC50 [10] was “Not Active”.
For `CC(=O)S[C@@H]1CC2=CC(=O)CC[C@]2(C)[C@H]2CC[C@@]3(C)[C@@H](CC[C@@]34CCC(=O)O4)[C@H]12` [SPIRONOLACTONE], the IC50 [1] was “Not Active”, the IC50 [2] was “Not Active” and the Ki [2] was “Not Active”. The IC50 [3] was “Not Active”, the IC50 [4] was “Not Active” and the IC50 [5] was “Not Active”. For the same molecule, the Ki [5] was “Not Active”, the IC50 [6] was “Not Active” and the IC50 [7] was “Not Active”. For the same molecule, the IC50 ([8]; read-out: IC50) was 1.67 µM, the Ki [8] was 0.217 µM and the IC50 [9] was “Not Active”. For the same molecule, the IC50 [10] was “Not Active”.
With `C[C@]12Cc3c[nH]nc3C[C@@H]1CC[C@@H]1[C@@H]2CC[C@@]2(C)[C@H]1CC[C@]2(C)O` [STANOZOLOL] the IC50 [1] was “Not Active”, the IC50 [2] was “Not Active” and the Ki [2] was “Not Active”. The IC50 [3] was “Not Active”, the IC50 [4] was “Not Active” and the IC50 [5] was “Not Active”. For the same molecule, the Ki [5] was “Not Active”, the IC50 [6] was “Not Active” and the IC50 [7] was “Not Active”. The IC50 ([8]; read-out: IC50) was 3.71 µM, the Ki [8] was 0.483 µM and the IC50 [9] was “Not Active”. The IC50 [10] was “Not Active”.
For `CN(N=O)C(=O)N[C@@H](C=O)[C@@H](O)[C@H](O)[C@H](O)CO` [STREPTOZOCIN], the IC50 [1] was “Not Active”, the IC50 [2] was “Not Active” and the Ki [2] was “Not Active”. The IC50 [3] was “Not Active”, the IC50 [4] was “Not Active” and the IC50 [5] was “Not Active”. The Ki [5] was “Not Active”, the IC50 [6] was “Not Active” and the IC50 [7] was “Not Active”. The IC50 [8] was “Not Active”, the IC50 [9] was “Not Active” and the IC50 [10] was “Not Active”.
For `Cc1cc(NS(=O)(=O)c2ccc(N)cc2)no1` [SULFAMETHOXAZOLE], the IC50 [1] was “Not Active”, the IC50 [2] was “Not Active” and the Ki [2] was “Not Active”. For the same molecule, the IC50 [3] was “Not Active”, the IC50 [4] was “Not Active” and the IC50 [5] was “Not Active”. The Ki [5] was “Not Active”, the IC50 [6] was “Not Active” and the IC50 [7] was “Not Active”. For the same molecule, the IC50 [8] was “Not Active”, the IC50 [9] was “Not Active” and the IC50 [10] was “Not Active”.
With `Nc1ccc(S(N)(=O)=O)cc1` [SULFANILAMIDE] the IC50 [1] was “Not Active”, the IC50 [2] was “Not Active” and the Ki [2] was “Not Active”. The IC50 [3] was “Not Active”, the IC50 [4] was “Not Active” and the IC50 [5] was “Not Active”. The Ki [5] was “Not Active”, the IC50 [6] was “Not Active” and the IC50 [7] was “Not Active”. For the same molecule, the IC50 [8] was “Not Active”, the IC50 [9] was “Not Active” and the IC50 [10] was “Not Active”.
For `Nc1ccc(S(=O)(=O)Nc2ccnn2-c2ccccc2)cc1` [SULFAPHENAZOLE], the IC50 [1] was “Not Active”, the IC50 [2] was “Not Active” and the Ki [2] was “Not Active”. The IC50 [3] was “Not Active”, the IC50 [4] was “Not Active” and the IC50 [5] was “Not Active”. The Ki [5] was “Not Active”, the IC50 [6] was “Not Active” and the IC50 [7] was “Not Active”. The IC50 [8] was “Not Active”, the IC50 [9] was “Not Active” and the IC50 [10] was “Not Active”.
For `C=CC[C@@H]1/C=C(\C)C[C@H](C)C[C@H](OC)[C@H]2O[C@@](O)(C(=O)C(=O)N3CCCC[C@H]3C(=O)O[C@H](/C(C)=C/[C@@H]3CC[C@@H](O)[C@H](OC)C3)[C@H](C)[C@@H](O)CC1=O)[C@H](C)C[C@@H]2OC` [TACROLIMUS ANHYDROUS], the IC50 [1] was “Not Active”, the IC50 [2] was “Not Active” and the Ki [2] was “Not Active”. For the same molecule, the IC50 [3] was “Not Active”, the IC50 [4] was “Not Active” and the IC50 [5] was “Not Active”. For the same molecule, the Ki [5] was “Not Active”, the IC50 [6] was “Not Active” and the IC50 [7] was “Not Active”. For the same molecule, the IC50 [8] was “Not Active”, the IC50 [9] was “Not Active” and the IC50 [10] was “Not Active”.
For `CC1CN(c2cc3c(cc2F)c(=O)c(C(=O)O)cn3-c2ccc(F)cc2F)CCN1` (configuration not stated) [TEMAFLOXACIN], the IC50 [1] was “Not Active”, the IC50 [2] was “Not Active” and the Ki [2] was “Not Active”. For the same molecule, the IC50 [3] was “Not Active”, the IC50 [4] was “Not Active” and the IC50 [5] was “Not Active”. For the same molecule, the Ki [5] was “Not Active”, the IC50 [6] was “Not Active” and the IC50 [7] was “Not Active”. The IC50 [8] was “Not Active”, the IC50 [9] was “Not Active” and the IC50 [10] was “Not Active”.
